Holding throughout (type): cell-based, rat
Data set [1] deals with LTC-14 cells. Briefly: Immunofluorescent staining of α-SMA in TGF-β-stimulated LTC-14 cells. The note with it: TGF-β 5 ng/mL, FIG. 1. How it is done: (§1) LTC-14 cells were cultured at 37° C. under a humidified condition of 95% air and 5% CO2 in Iscove's Modified Dulbecco's Medium (IMDM) supplemented with 10% fetal bovine serum (FBS). Cells used in all the experiment were among passages 9 to 25. LTC-14 cells were seeded at a density of 1×10^5/well in a 12-well plate, and incubated with recombinant TGF-β at 5 ng/mL and Eruberin A at 0, 0.5, 1, 5, 10 and 20 μg/mL in serum-free IMDM for 24 hours. Cells were then harvested for mRNA and protein extraction or subjected to Sirius Red/Fast Green staining or immunofluorescent staining.
For immunofluorescent staining of α-SMA, LTC-14 cells were seeded at a density of 1×10^5 onto the poly-L-lysine-coated cover slips in a 24-well plate, incubated with TGF-β at 5 ng/mL and Eruberin A at 0, 0.5, 1, 5, 10 and 20 μg/mL in serum-free IMDM for 24 hours. Cells were then fixed, blocked with 3% bovine serum albumin (BSA), probed with antibodies and mounted with fluorescence mounting medium containing 4′,6-diamidino-2-phenylindole (DAPI). Images were captured using the Nikon microscope and analyzed by the SPOT advanced software.

Data set [2] has as its system LTC-14 cells. In words: Western blotting of α-SMA and FN1 proteins in TGF-β-stimulated LTC-14 cells. The note with it: TGF-β 5 ng/mL, Eruberin A 0.5-20 μg/mL, 24 hours, serum-free medium, FIG. 2. On the procedure: as §1
(§2) Cytoplasmic and nuclear protein fractions of the LTC-14 cells were extracted using specific lysis buffers containing protease inhibitors. Cell lysates were loaded and separated by SDS-polyacrylamide gel electrophoresis. After wet electroblotting, proteins were transferred onto PVDF membranes (Bio-Rad), blocked with 5% non-fat milk, probed with antibodies and visualized by utilization of an ECL kit (GE Healthcare).
In general terms: Immunoblotting shows a protein as a band on a membrane.

The test system of data set [3] is LTC-14 cells. In words: Sirius Red/Fast Green collagen staining of LTC-14 cells. Particulars: TGF-β 5 ng/mL, Eruberin A 10 μg/mL, p<0.05 vs TGF-β alone, FIG. 3. How it is done:
as §1
Amounts of collagen and non-collagenous proteins in LTC-14 cells were measured using the Sirius Red/Fast Green collagen staining kit (Chondrex Inc.) according to the manufacturer's instruction.

The subject of data set [4] is LTC-14 cells. In words: Real-time quantitative PCR of fibrotic mediator mRNA in TGF-β-stimulated LTC-14 cells. The note with it: TGF-β 5 ng/mL, 24 hours. On the procedure:
as §1
mRNA samples from LTC-14 cells were extracted using Trizol reagent and subjected to a reverse transcription for cDNA synthesis. The synthesized cDNA was applied to amplifications with rat-specific primers for Tgf-β, Acta2, Col I-α1 and Fn1 in the ABI ViiA 7 real-time PCR system (Applied Biosystems) using 2×SYBR Green PCR Master Mix (Applied Biosystems). The Ct value of gene of interest was normalized to the endogenous reference Gapdh and presented as 2^−ΔΔCt using the comparative Ct method.

For data set [5], the system named is LTC-14 cells. In words: MTT cell proliferation assay. Particulars: Eruberin A in the range of 0 to 20 μg/mL; results not shown. In general terms: Formazan colour is commonly taken as a measure of viable cells.
For another data set, the system named is NF-κB. Briefly: Western blotting of nuclear translocation of NF-κB in LTC-14 cells. Particulars: compared to the TGF-β-treated control, FIG. 5. How it is done: as §1, §2
The mark [6] stands for this setting: Eruberin A 0.5-20 μg/mL, FIG. 4.

Values after ≈ are worked out from the molar mass of the structure shown.

As to `COc1ccc(C2C[C@@H]3OC4C(Oc5c(C)c(O)c(C)c(c53)O2)OC(CO)C(O)C4O)cc1` (stereo partly drawn) [Eruberin A], the “TGF-β-stimulated α-SMA expression (immunofluorescence)” value with LTC-14 cells [1] (24 hours) is given as “significantly attenuated”. In the data set with LTC-14 cells [1] (Eruberin A at 10 μg/mL), the “immunoreactivities of α-SMA” value is on record as “sufficiently suppress”. Besides, in the data set on LTC-14 cells [2], the “TGF-β-provoked elevation of FN1 protein” value was “effectively attenuated” and the “TGF-β-provoked elevation of α-SMA protein” value is on record as “effectively attenuated”. In addition, the “production of collagen (ratio of Sirius Red-stained collagenous to Fast Green-stained non-collagenous proteins)” value in the data set on LTC-14 cells [3] is on record as “notably suppressed”. In the data set on LTC-14 cells [4] (Rattus norvegicus, read-out: IC50 based on suppressive effects on the mRNA expression of α-SMA), the IC50 – broadly, the midpoint of a concentration-inhibition curve – is roughly 10 mg/L (≈ 21.7 µM). For the same molecule, in the data set with LTC-14 cells [4] (setting [6]), the “TGF-β-elevated mRNA expression level of Acta2” value is “significantly and dose-dependently suppressed”; the “TGF-β-elevated mRNA expression level of Col I-α1” value is “significantly and dose-dependently suppressed”; the “TGF-β-elevated mRNA expression level of Fn1” value is “significantly and dose-dependently suppressed”; the “TGF-β-elevated mRNA expression level of Tgf-” value was “significantly and dose-dependently suppressed”. The “cytotoxicity (MTT cell proliferation assay)” value in the data set with LTC-14 cells [5] is on record as “no notable cytotoxicity”. For the same molecule, in the data set with NF-κB, the “nuclear translocation of NF-κB” value is given as “significantly decreased”.

Values taken from US9260466B2, “Use of a flavanol glycoside for suppressing activation of stellate cells” (Hong Kong Baptist University, priority 2013, dated 2016).
